{
  "source": "PubChem BioAssay (NCI)",
  "test_in_all_cases": "inhibition of tumour cell growth, NCI panel, 48 h",
  "key": {"DU-145 prostate": {"tested_on": "DU-145 prostate"}, "HCT-116 colon": {"tested_on": "HCT-116 colon"}, "IGROV1 ovarian": {"tested_on": "IGROV1 ovarian"}, "NCI-H23 lung": {"tested_on": "NCI-H23 lung"}, "NCI-H460 lung": {"tested_on": "NCI-H460 lung"}, "OVCAR-8 ovarian": {"tested_on": "OVCAR-8 ovarian"}, "SK-MEL-2 melanoma": {"tested_on": "SK-MEL-2 melanoma"}, "UACC-62 melanoma": {"tested_on": "UACC-62 melanoma"}},
  "note": "“And” between values parts separate entries of the source, which are not always exact repeats. Identical values can stand only once.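 The compound was tested at five concentrations on cells cultured in 96-well plates, with a 48-hour exposure period. GI50 marks 50% less growth. At the TGI there is no net growth.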",
  "data": [
    {"smiles": "NC(N)=N/N=C/c1c(-c2ccccc2[N+](=O)[O-])nc2sccn12", "values": [
      {"measurement": "TGI", "setting": "DU-145 prostate", "result": "> 100", "unit": "µM"},
      {"measurement": "TGI", "setting": "HCT-116 colon", "result": 34.4, "unit": "µM"},
      {"measurement": "TGI", "setting": "IGROV1 ovarian", "result": "> 100", "unit": "µM"},
      {"measurement": "TGI", "setting": "NCI-H23 lung", "result": 86.5, "unit": "µM"},
      {"measurement": "TGI", "setting": "NCI-H460 lung", "result": 39.7, "unit": "µM"},
      {"measurement": "TGI", "setting": "OVCAR-8 ovarian", "result": "> 100", "unit": "µM"},
      {"measurement": "TGI", "setting": "SK-MEL-2 melanoma", "result": 30.4, "unit": "µM"},
      {"measurement": "TGI", "setting": "UACC-62 melanoma", "result": 32.7, "unit": "µM"}
    ]},
    {"smiles": "Cc1cccc2cc(/C=C/C(=O)/C=C/c3ccc(Cl)cc3)c(=O)[nH]c12", "values": [
      {"measurement": "GI50", "setting": "HCT-116 colon", "result": 259, "unit": "nM"},
      {"measurement": "TGI", "setting": "HCT-116 colon", "result": 0.635, "unit": "µM"},
      {"measurement": "GI50", "setting": "NCI-H460 lung", "result": "> 100", "unit": "µM"},
      {"measurement": "TGI", "setting": "NCI-H460 lung", "result": "> 100", "unit": "µM"},
      {"measurement": "GI50", "setting": "SK-MEL-2 melanoma", "result": "> 100", "unit": "µM"},
      {"measurement": "TGI", "setting": "SK-MEL-2 melanoma", "result": "> 100", "unit": "µM"}
    ]},
    {"smiles": "CC(C#N)(c1ccccc1)N(CCc1ccccc1)C(=O)Oc1ccccc1", "note": "(stereo unspecified)", "values": [
      {"measurement": "TGI", "setting": "DU-145 prostate", "result": "> 100", "unit": "µM"},
      {"measurement": "TGI", "setting": "HCT-116 colon", "result": "> 100", "unit": "µM"},
      {"measurement": "TGI", "setting": "IGROV1 ovarian", "result": "> 100", "unit": "µM"},
      {"measurement": "TGI", "setting": "NCI-H23 lung", "result": "> 100", "unit": "µM"},
      {"measurement": "TGI", "setting": "OVCAR-8 ovarian", "result": "> 100", "unit": "µM"},
      {"measurement": "TGI", "setting": "SK-MEL-2 melanoma", "result": "> 100", "unit": "µM"},
      {"measurement": "TGI", "setting": "UACC-62 melanoma", "result": "> 100", "unit": "µM"}
    ]},
    {"smiles": "CC1=C(O)C(=O)C=C2C1=CC=C1[C@@]2(C)CC[C@@]2(C)C3C[C@@H](C)C(=O)[C@@H](O)[C@]3(C)CC[C@]12C", "note": "(stereo partly specified)", "values": [
      {"measurement": "TGI", "setting": "DU-145 prostate", "result": 3.38, "unit": "µM"},
      {"measurement": "TGI", "setting": "HCT-116 colon", "result": 3.21, "unit": "µM"},
      {"measurement": "TGI", "setting": "IGROV1 ovarian", "result": 3.28, "unit": "µM"},
      {"measurement": "TGI", "setting": "NCI-H23 lung", "result": 3.6, "unit": "µM"},
      {"measurement": "TGI", "setting": "NCI-H460 lung", "result": 37.6, "unit": "µM"},
      {"measurement": "TGI", "setting": "OVCAR-8 ovarian", "result": 5.47, "unit": "µM"},
      {"measurement": "TGI", "setting": "SK-MEL-2 melanoma", "result": 9.85, "unit": "µM"},
      {"measurement": "TGI", "setting": "UACC-62 melanoma", "result": 3.28, "unit": "µM"}
    ]},
    {"smiles": "COC(=O)c1cc2ccc(O)c(O)c2cn1", "values": [
      {"measurement": "TGI", "setting": "DU-145 prostate", "result": "> 100", "unit": "µM"},
      {"measurement": "TGI", "setting": "HCT-116 colon", "result": 29.2, "unit": "µM"},
      {"measurement": "TGI", "setting": "IGROV1 ovarian", "result": 33.2, "unit": "µM"},
      {"measurement": "TGI", "setting": "NCI-H23 lung", "result": 32, "unit": "µM"},
      {"measurement": "TGI", "setting": "NCI-H460 lung", "result": 37.4, "unit": "µM"},
      {"measurement": "TGI", "setting": "OVCAR-8 ovarian", "result": 28.6, "unit": "µM"},
      {"measurement": "TGI", "setting": "SK-MEL-2 melanoma", "result": 34.3, "unit": "µM"},
      {"measurement": "GI50", "setting": "UACC-62 melanoma", "result": 14.2, "unit": "µM"},
      {"measurement": "TGI", "setting": "UACC-62 melanoma", "result": "6.16 µM and 30.9 µM"}
    ]},
    {"smiles": "C=CCN1C(=O)CC2[C@@H]3CCc4cc(O)ccc4C3CC[C@]2(C)C1=O", "note": "(stereo partly specified)", "values": [
      {"measurement": "TGI", "setting": "DU-145 prostate", "result": "> 10", "unit": "µM"},
      {"measurement": "TGI", "setting": "HCT-116 colon", "result": "> 10", "unit": "µM"},
      {"measurement": "TGI", "setting": "IGROV1 ovarian", "result": "> 10", "unit": "µM"},
      {"measurement": "TGI", "setting": "NCI-H23 lung", "result": "> 10", "unit": "µM"},
      {"measurement": "TGI", "setting": "NCI-H460 lung", "result": "> 10", "unit": "µM"},
      {"measurement": "TGI", "setting": "OVCAR-8 ovarian", "result": "> 10", "unit": "µM"},
      {"measurement": "TGI", "setting": "SK-MEL-2 melanoma", "result": "> 10", "unit": "µM"},
      {"measurement": "TGI", "setting": "UACC-62 melanoma", "result": "> 10", "unit": "µM"}
    ]},
    {"smiles": "Clc1ccc(/C=C/c2nc(-c3ccccc3)cn3c2nc2ccccc23)cc1Cl", "values": [
      {"measurement": "TGI", "setting": "DU-145 prostate", "result": "> 100", "unit": "µM"},
      {"measurement": "TGI", "setting": "HCT-116 colon", "result": "> 100", "unit": "µM"},
      {"measurement": "TGI", "setting": "IGROV1 ovarian", "result": "> 100", "unit": "µM"},
      {"measurement": "TGI", "setting": "NCI-H23 lung", "result": "> 100", "unit": "µM"},
      {"measurement": "TGI", "setting": "NCI-H460 lung", "result": "> 100", "unit": "µM"},
      {"measurement": "TGI", "setting": "SK-MEL-2 melanoma", "result": "> 100", "unit": "µM"},
      {"measurement": "TGI", "setting": "UACC-62 melanoma", "result": "> 100", "unit": "µM"}
    ]},
    {"smiles": "COc1cc2c(cc1OS(C)(=O)=O)N=C[C@@H]1CCCN1C2=O", "values": [
      {"measurement": "TGI", "setting": "DU-145 prostate", "result": "> 100", "unit": "µM"},
      {"measurement": "TGI", "setting": "HCT-116 colon", "result": "> 100", "unit": "µM"},
      {"measurement": "TGI", "setting": "IGROV1 ovarian", "result": "> 100", "unit": "µM"},
      {"measurement": "TGI", "setting": "NCI-H23 lung", "result": "> 100", "unit": "µM"},
      {"measurement": "TGI", "setting": "NCI-H460 lung", "result": "> 100", "unit": "µM"},
      {"measurement": "TGI", "setting": "OVCAR-8 ovarian", "result": "> 100", "unit": "µM"},
      {"measurement": "TGI", "setting": "SK-MEL-2 melanoma", "result": "> 100", "unit": "µM"},
      {"measurement": "TGI", "setting": "UACC-62 melanoma", "result": "> 100", "unit": "µM"}
    ]},
    {"smiles": "COC(=O)C(Cc1ccccc1)NC(=O)CSc1nnc(COc2ccc(Cl)cc2)n1-c1ccccc1", "note": "(stereo unspecified)", "values": [
      {"measurement": "TGI", "setting": "DU-145 prostate", "result": "> 100", "unit": "µM"},
      {"measurement": "TGI", "setting": "HCT-116 colon", "result": 54.6, "unit": "µM"},
      {"measurement": "TGI", "setting": "IGROV1 ovarian", "result": "> 100", "unit": "µM"},
      {"measurement": "TGI", "setting": "NCI-H23 lung", "result": 53.3, "unit": "µM"},
      {"measurement": "TGI", "setting": "NCI-H460 lung", "result": 35.7, "unit": "µM"},
      {"measurement": "TGI", "setting": "SK-MEL-2 melanoma", "result": 33.2, "unit": "µM"},
      {"measurement": "TGI", "setting": "UACC-62 melanoma", "result": 27.9, "unit": "µM"}
    ]},
    {"smiles": "C/C=C1/CC(C(=O)OC)N(C(=O)OCc2ccccc2)C1=S", "note": "(stereo unspecified)", "values": [
      {"measurement": "TGI", "setting": "DU-145 prostate", "result": "> 100", "unit": "µM"},
      {"measurement": "TGI", "setting": "HCT-116 colon", "result": "> 100", "unit": "µM"},
      {"measurement": "TGI", "setting": "IGROV1 ovarian", "result": "> 100", "unit": "µM"},
      {"measurement": "TGI", "setting": "NCI-H23 lung", "result": "> 100", "unit": "µM"},
      {"measurement": "TGI", "setting": "NCI-H460 lung", "result": 38.8, "unit": "µM"},
      {"measurement": "TGI", "setting": "OVCAR-8 ovarian", "result": "> 100", "unit": "µM"},
      {"measurement": "TGI", "setting": "SK-MEL-2 melanoma", "result": "> 100", "unit": "µM"},
      {"measurement": "TGI", "setting": "UACC-62 melanoma", "result": "> 100", "unit": "µM"}
    ]},
    {"smiles": "CC(=O)OCC1OC(n2c3c(c(-c4ccc(C)cc4)c(C#N)c2=S)C(=O)CC(C)(C)C3)C(OC(C)=O)C(OC(C)=O)C1OC(C)=O", "note": "(stereo unspecified)", "values": [
      {"measurement": "TGI", "setting": "DU-145 prostate", "result": "> 100", "unit": "µM"},
      {"measurement": "TGI", "setting": "HCT-116 colon", "result": "> 100", "unit": "µM"},
      {"measurement": "TGI", "setting": "IGROV1 ovarian", "result": "> 100", "unit": "µM"},
      {"measurement": "TGI", "setting": "NCI-H23 lung", "result": "> 100", "unit": "µM"},
      {"measurement": "TGI", "setting": "NCI-H460 lung", "result": "> 100", "unit": "µM"},
      {"measurement": "TGI", "setting": "OVCAR-8 ovarian", "result": "> 100", "unit": "µM"},
      {"measurement": "TGI", "setting": "UACC-62 melanoma", "result": 44.4, "unit": "µM"}
    ]},
    {"smiles": "COC(=NC(C)C)NC(C)C", "values": [
      {"measurement": "TGI", "setting": "DU-145 prostate", "result": "> 100", "unit": "µM"},
      {"measurement": "TGI", "setting": "HCT-116 colon", "result": "> 100", "unit": "µM"},
      {"measurement": "TGI", "setting": "IGROV1 ovarian", "result": "> 100", "unit": "µM"},
      {"measurement": "TGI", "setting": "NCI-H23 lung", "result": "> 100", "unit": "µM"},
      {"measurement": "TGI", "setting": "NCI-H460 lung", "result": "> 100", "unit": "µM"},
      {"measurement": "TGI", "setting": "OVCAR-8 ovarian", "result": "> 100", "unit": "µM"},
      {"measurement": "TGI", "setting": "SK-MEL-2 melanoma", "result": "> 100", "unit": "µM"},
      {"measurement": "TGI", "setting": "UACC-62 melanoma", "result": "> 100", "unit": "µM"}
    ]}
  ]
}
